Our source for the TGI and GI50 values is PubChem BioAssay (NCI).

Among the test systems are CCRF-CEM leukemia; DU-145 prostate; MALME-3M melanoma; HT29 colon; SK-OV-3 ovarian; NCI-H522 lung; HL-60(TB) leukemia; MOLT-4 leukemia; UACC-257 melanoma; SK-MEL-5 melanoma.
Holding throughout (test): NCI tumour cell line growth inhibition, 48 h

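Protocol summary: plate cells (96-well), add compound at 5 concentrations, incubate 48 h, interpolate endpoints linearly. Here, GI50 denotes the concentration required for 50% inhibition of growth. TGI: concentration producing complete growth inhibition.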

Turning to `O=C(O)Cc1[nH]cnc1C(=O)O`, the TGI with CCRF-CEM leukemia, in the experiment on DU-145 prostate, in the experiment with MALME-3M melanoma, in the experiment with HT29 colon, with SK-OV-3 ovarian and with NCI-H522 lung was greater than 100 µM each time. Besides, the TGI with HL-60(TB) leukemia, in the experiment with MOLT-4 leukemia, with UACC-257 melanoma and in the experiment on SK-MEL-5 melanoma was greater than 100 µM each time.
Turning to `N#CC1=C(N)Nc2nc3ccccc3n2C1c1ccccc1` (stereo not given), the TGI in the experiment with CCRF-CEM leukemia, in the experiment with DU-145 prostate, in the experiment on HT29 colon, in the experiment on SK-OV-3 ovarian, in the experiment on HL-60(TB) leukemia and with MOLT-4 leukemia was greater than 100 µM throughout. Besides, the TGI with UACC-257 melanoma and in the experiment with SK-MEL-5 melanoma was greater than 100 µM throughout.
As for `CCOn1cc(C2=C(c3c[nH]c4ccccc34)C(=O)NC2=O)c2ccccc21`, the GI50 was 0.0672 µM in the experiment on CCRF-CEM leukemia; 0.163 µM with DU-145 prostate; less than 0.0224 µM in the experiment with HT29 colon; 0.062 µM in the experiment with SK-OV-3 ovarian; less than 0.0176 µM with HL-60(TB) leukemia; less than 0.01 µM with MOLT-4 leukemia. The GI50 with UACC-257 melanoma was 0.859 µM; in the experiment with SK-MEL-5 melanoma, less than 0.01 µM. In addition, the TGI in the experiment with CCRF-CEM leukemia is 19 µM; in the experiment on DU-145 prostate, 16.9 µM; in the experiment on HT29 colon it was 12.8 µM; in the experiment on SK-OV-3 ovarian, 0.735 µM; with NCI-H522 lung, greater than 33.6 µM; in the experiment with MOLT-4 leukemia it was 10.4 µM. Further, the TGI was 20.5 µM in the experiment on UACC-257 melanoma and less than 0.01 µM in the experiment with SK-MEL-5 melanoma.
For the molecule `CC1(C)N=C(N)N=C(N)N1c1cccc(OCc2cccc([N+](=O)[O-])c2)c1`, the TGI in the experiment with CCRF-CEM leukemia, with DU-145 prostate, with MALME-3M melanoma, in the experiment on HT29 colon, with SK-OV-3 ovarian and in the experiment on NCI-H522 lung was greater than 100 µM in each case. The TGI with HL-60(TB) leukemia was 58.2 µM; in the experiment on MOLT-4 leukemia, greater than 100 µM; with UACC-257 melanoma, 48.2 µM; in the experiment on SK-MEL-5 melanoma, greater than 88.7 µM.
`COC(=O)c1nc2c3c(cccc3c1C(=O)OC)Nc1ccccc1-2`: the TGI in the experiment with CCRF-CEM leukemia was greater than 100 µM; in the experiment with DU-145 prostate, greater than 100 µM; with MALME-3M melanoma it was 93 µM; in the experiment on HT29 colon it was greater than 100 µM; in the experiment with SK-OV-3 ovarian, greater than 100 µM; in the experiment on NCI-H522 lung, 41.5 µM. Besides, the TGI in the experiment on HL-60(TB) leukemia was greater than 100 µM; in the experiment on MOLT-4 leukemia it was greater than 100 µM; in the experiment with UACC-257 melanoma, greater than 100 µM; in the experiment on SK-MEL-5 melanoma, 56.5 µM.
Regarding `O=C1OC2(c3ccc(O)cc3Oc3cc(O)ccc32)c2c1c(-c1ccccc1)c(-c1ccccc1)c(-c1ccccc1)c2-c1ccccc1`, the TGI in the experiment on DU-145 prostate is 35.2 µM; in the experiment on MALME-3M melanoma it was 44.6 µM; in the experiment on HT29 colon, 40.4 µM; with SK-OV-3 ovarian, greater than 100 µM; in the experiment on NCI-H522 lung, 32.6 µM; in the experiment on HL-60(TB) leukemia, 39.4 µM. Moreover, the TGI in the experiment with MOLT-4 leukemia was 56.9 µM; in the experiment on UACC-257 melanoma it was 78.3 µM; in the experiment with SK-MEL-5 melanoma, 54 µM.
Take `CSc1sc(=S)sc1SC`: the TGI is greater than 100 µM with CCRF-CEM leukemia; greater than 100 µM with MALME-3M melanoma; greater than 100 µM in the experiment with HT29 colon; greater than 100 µM in the experiment on SK-OV-3 ovarian; greater than 100 µM in the experiment with NCI-H522 lung; greater than 31.6 µM in the experiment on HL-60(TB) leukemia. In addition, the TGI with MOLT-4 leukemia, with UACC-257 melanoma and with SK-MEL-5 melanoma was greater than 100 µM throughout.
As for `C/C(=C\COP(=O)(O)OP(=O)(O)O)CC/C=C(\C)CNc1ccc([N+](=O)[O-])cc1`, the TGI with CCRF-CEM leukemia, with DU-145 prostate, in the experiment on MALME-3M melanoma, in the experiment with HT29 colon, in the experiment with SK-OV-3 ovarian and in the experiment with NCI-H522 lung was greater than 100 µM each time. The TGI with HL-60(TB) leukemia, with MOLT-4 leukemia, in the experiment on UACC-257 melanoma and with SK-MEL-5 melanoma was greater than 100 µM in each case.
On to `C#C[C@@]1(O)[C@@H](CO)O[C@@H](n2cc(F)c3c(N)ncnc32)[C@@H]1O`, for which the GI50 with CCRF-CEM leukemia was 0.338 µM; in the experiment on DU-145 prostate it was 0.354 µM; with MALME-3M melanoma, 0.362 µM; in the experiment on HT29 colon it was 0.207 µM; in the experiment with SK-OV-3 ovarian, 0.285 µM; with NCI-H522 lung, 0.18 µM. Besides, the GI50 with HL-60(TB) leukemia is 0.436 µM; with MOLT-4 leukemia, 0.304 µM; in the experiment with UACC-257 melanoma it was 0.487 µM; with SK-MEL-5 melanoma, 0.267 µM. Also, the TGI in the experiment on CCRF-CEM leukemia is greater than 100 µM; in the experiment on DU-145 prostate, 13.4 µM; with MALME-3M melanoma it was 1.81 µM; in the experiment with HT29 colon, greater than 100 µM; with SK-OV-3 ovarian it was 2.09 µM; in the experiment with NCI-H522 lung, 0.929 µM. Besides, the TGI in the experiment with HL-60(TB) leukemia is 3.53 µM; in the experiment with MOLT-4 leukemia, greater than 100 µM; in the experiment on UACC-257 melanoma, 4.64 µM; in the experiment on SK-MEL-5 melanoma it was 1.33 µM.
`NC(=O)c1cc(C2OC(CO)C(O)C2O)nn1-c1ccc([N+](=O)[O-])cc1` (stereo not given): the TGI in the experiment on CCRF-CEM leukemia, in the experiment with MALME-3M melanoma, with HT29 colon, in the experiment on SK-OV-3 ovarian, with HL-60(TB) leukemia and in the experiment on MOLT-4 leukemia was greater than 100 µM each time. For the same molecule, the TGI in the experiment with UACC-257 melanoma and in the experiment with SK-MEL-5 melanoma was greater than 100 µM in each case.
For `C[C@H](CCC1=NCCN1)[C@H]1CC[C@H]2[C@@H]3CC[C@@H]4C[C@H](O)CC[C@]4(C)[C@H]3CC[C@]12C`, the TGI was 14.2 µM in the experiment with CCRF-CEM leukemia; 35.8 µM in the experiment on DU-145 prostate; 7.76 µM in the experiment with MALME-3M melanoma; 3.65 µM with HT29 colon; 45.3 µM in the experiment on SK-OV-3 ovarian; 14.3 µM with NCI-H522 lung. Besides, the TGI in the experiment with MOLT-4 leukemia came out at 8.79 µM; in the experiment with UACC-257 melanoma it was 6.6 µM; with SK-MEL-5 melanoma it was 3.45 µM.
As to `O=C(O)C(Br)Cc1ccc2c(c1)OCO2` (stereo not given), the TGI in the experiment on CCRF-CEM leukemia, in the experiment with MALME-3M melanoma, with HT29 colon, with SK-OV-3 ovarian, in the experiment with NCI-H522 lung and in the experiment on HL-60(TB) leukemia was greater than 100 µM each time. Also, the TGI with MOLT-4 leukemia, with UACC-257 melanoma and in the experiment on SK-MEL-5 melanoma was greater than 100 µM in each case.
`COc1ccc(/C(Cl)=C(\C=O)c2ccc(Cl)c(Cl)c2)cc1OC`: the TGI came to 8.72 µM in the experiment on CCRF-CEM leukemia; 42.5 µM in the experiment on MALME-3M melanoma; 8.77 µM in the experiment on HT29 colon; 75.4 µM in the experiment on SK-OV-3 ovarian; 6.53 µM in the experiment with NCI-H522 lung; 6.67 µM in the experiment on HL-60(TB) leukemia. Moreover, the TGI worked out at 5.76 µM in the experiment on MOLT-4 leukemia and 26.6 µM with SK-MEL-5 melanoma.
Regarding `CCCCCCCCCCCCCCCCOCCCOP(=O)(O)C1CCCN(O)C1=O` (stereo not given), the GI50 with CCRF-CEM leukemia is 0.553 µM; in the experiment on DU-145 prostate, 2.53 µM; in the experiment on MALME-3M melanoma, 2.64 µM; in the experiment on HT29 colon, 0.953 µM; with SK-OV-3 ovarian it was 3.62 µM; in the experiment with NCI-H522 lung, 2.76 µM. Moreover, the GI50 in the experiment with HL-60(TB) leukemia is 1.31 µM; in the experiment with MOLT-4 leukemia, 1.6 µM; with UACC-257 melanoma it was 3.23 µM; with SK-MEL-5 melanoma, 3.74 µM. For the same molecule, the TGI is 30 µM in the experiment with CCRF-CEM leukemia; greater than 100 µM in the experiment on DU-145 prostate; 10.8 µM in the experiment with MALME-3M melanoma; 83.5 µM in the experiment on HT29 colon; 16.7 µM in the experiment with SK-OV-3 ovarian; 14.8 µM in the experiment with NCI-H522 lung. The TGI was determined as 10.3 µM in the experiment on HL-60(TB) leukemia, 19.7 µM in the experiment with MOLT-4 leukemia, 14.8 µM in the experiment with UACC-257 melanoma and 14.7 µM in the experiment on SK-MEL-5 melanoma.
Consider `COc1ccc(/C=C/[N+](=O)[O-])cc1`, for which the TGI was determined as 20.3 µM in the experiment on DU-145 prostate; 35.3 µM in the experiment on MALME-3M melanoma; 11.2 µM in the experiment on HT29 colon; 43.4 µM in the experiment on NCI-H522 lung; 8.82 µM in the experiment on HL-60(TB) leukemia; 12.8 µM in the experiment with MOLT-4 leukemia. Further, the figures for the TGI with UACC-257 melanoma and in the experiment with SK-MEL-5 melanoma were 8.09 µM and 30.2 µM, respectively.
`O=C1c2ccccc2C(=O)c2c(O)c(O)cc(O)c21`: the TGI was greater than 100 µM with CCRF-CEM leukemia; greater than 100 µM in the experiment with MALME-3M melanoma; 82.7 µM in the experiment with SK-OV-3 ovarian; 96.1 µM in the experiment on NCI-H522 lung; 56.5 µM in the experiment with HL-60(TB) leukemia; 97.9 µM in the experiment with MOLT-4 leukemia. Also, the TGI in the experiment with UACC-257 melanoma and in the experiment on SK-MEL-5 melanoma was greater than 100 µM in each case.
Regarding `COc1cc2c3c(c4cc(OC)c(OC)cc4c2cc1OC)[C@H](O)[C@@H]1CCCN1C3`, the TGI is greater than 100 µM in the experiment with CCRF-CEM leukemia; 1.45 µM with DU-145 prostate; 6.69 µM in the experiment with MALME-3M melanoma; 1.53 µM in the experiment on HT29 colon; 1.69 µM with SK-OV-3 ovarian; 1.55 µM in the experiment on NCI-H522 lung. Also, the TGI in the experiment on HL-60(TB) leukemia was 3.49 µM; in the experiment with MOLT-4 leukemia it was greater than 100 µM; in the experiment on UACC-257 melanoma, 1.15 µM; in the experiment with SK-MEL-5 melanoma it was 1.11 µM.
For the molecule `Nc1nncs1`, the TGI with CCRF-CEM leukemia was greater than 5000 µM; in the experiment on DU-145 prostate, greater than 5000 µM; in the experiment on MALME-3M melanoma, greater than 5000 µM; in the experiment on HT29 colon it was greater than 3390 µM; with SK-OV-3 ovarian it was 928 µM; in the experiment with NCI-H522 lung, 4690 µM. In addition, the TGI was greater than 5000 µM in the experiment with HL-60(TB) leukemia, greater than 4900 µM in the experiment on MOLT-4 leukemia, greater than 4200 µM in the experiment on UACC-257 melanoma and greater than 5000 µM in the experiment with SK-MEL-5 melanoma.
In the case of `COc1ccc2c(c1)/C(=C\c1cccc(/C=C3/C(=O)Nc4ccc(OC)cc43)n1)C(=O)N2`, the TGI is greater than 38 µM with CCRF-CEM leukemia; 9.73 µM with DU-145 prostate; 5.51 µM in the experiment on MALME-3M melanoma; 17.3 µM in the experiment with SK-OV-3 ovarian; 6.9 µM in the experiment with NCI-H522 lung; 2.05 µM with HL-60(TB) leukemia. In addition, the TGI turned out to be 0.802 µM with MOLT-4 leukemia, 18.4 µM with UACC-257 melanoma and 2.24 µM in the experiment with SK-MEL-5 melanoma.
Regarding `O=C(O)CNCc1c2ccccc2[n+]([O-])c2ccccc12`, the TGI in the experiment on CCRF-CEM leukemia is greater than 100 µM; in the experiment on MALME-3M melanoma it was greater than 100 µM; in the experiment on HT29 colon, greater than 100 µM; in the experiment with SK-OV-3 ovarian, greater than 100 µM; with NCI-H522 lung, greater than 100 µM; with HL-60(TB) leukemia, 91.1 µM. In addition, the TGI with MOLT-4 leukemia, in the experiment on UACC-257 melanoma and in the experiment on SK-MEL-5 melanoma was greater than 100 µM throughout.
